Key:
[1] = target: T1, Recombinant (1-346) HPK1 (h) (Homo sapiens, UniProt Q92918); test: HPK1 Human STE Kinase Enzymatic Radiometric Assay; assay type: biochemical; settings: read-out: HPK1 IC50 nM Range*
T1 construct: Recombinant (1-346) HPK1 (h) is incubated with 8 mM MOPS pH 7.0
T1 sequence (Q92918 1-346): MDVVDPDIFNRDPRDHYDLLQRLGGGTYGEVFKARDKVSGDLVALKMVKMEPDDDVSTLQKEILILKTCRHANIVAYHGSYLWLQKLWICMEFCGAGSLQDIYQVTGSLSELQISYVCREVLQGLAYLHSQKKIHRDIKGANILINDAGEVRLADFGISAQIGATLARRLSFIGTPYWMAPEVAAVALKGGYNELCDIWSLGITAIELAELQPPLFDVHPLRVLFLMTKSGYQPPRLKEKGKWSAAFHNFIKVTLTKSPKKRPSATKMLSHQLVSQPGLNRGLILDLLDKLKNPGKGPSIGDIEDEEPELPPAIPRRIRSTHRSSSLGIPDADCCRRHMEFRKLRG
Experimental: A stock solution of 10 mM of test compound is prepared in DMSO. The compound plate was prepared by 3-fold and 9-point serial dilutions. […] The reaction is initiated by The addition of the Mg/ATP mix. After incubation for 40 minutes at RT, the reaction is stopped by the addition of phosphoric acid to a concentration of 0.5%.

[2] = target: Lck (h) (Homo sapiens, UniProt P06239); test: Lck Human  Kinase Enzymatic Radiometric Assay; assay type: biochemical; settings: read-out: Lck IC50 nM Range*
Lck (h), sequence (P06239 whole entry): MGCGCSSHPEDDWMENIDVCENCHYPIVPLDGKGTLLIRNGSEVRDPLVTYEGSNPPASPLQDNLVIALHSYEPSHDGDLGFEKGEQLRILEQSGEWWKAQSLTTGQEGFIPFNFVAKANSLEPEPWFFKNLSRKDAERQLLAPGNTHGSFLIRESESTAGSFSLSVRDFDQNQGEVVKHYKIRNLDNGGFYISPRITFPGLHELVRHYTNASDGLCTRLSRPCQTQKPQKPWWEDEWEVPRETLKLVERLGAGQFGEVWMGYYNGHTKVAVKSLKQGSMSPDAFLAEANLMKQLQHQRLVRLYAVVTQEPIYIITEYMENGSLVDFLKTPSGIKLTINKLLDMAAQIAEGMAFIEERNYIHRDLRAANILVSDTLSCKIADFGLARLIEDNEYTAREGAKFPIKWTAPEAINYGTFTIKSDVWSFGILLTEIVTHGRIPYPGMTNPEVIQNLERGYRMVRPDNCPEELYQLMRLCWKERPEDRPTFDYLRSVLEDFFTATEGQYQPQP
Summary of the method: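 Substrate 33P-incorporation measured by scintillation counting after spotting on P30 filtermat and phosphoric acid washes. Human Lck reacted 40 min at RT in 50 mM Tris pH 7.5 with 10 mM MgAcetate, [gamma-33P]-ATP, 250 uM Cdc2 peptide, 0.1 mM EGTA and 0.1 mM Na3VO4.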

Row | IC50 [1] | IC50 [2] | Compound
1 | 0.1 to 10 nM | > 1000 nM | CC(C)[C@H]1CN(c2ccc(-c3cc(-c4ccc5c(c4)CCNC5=O)c(N)nc3F)cc2)CCN1C [I-50, (S)-6-(2-amino-6-fluoro-5-(4-(3-isopropyl-4-methylpiperazin-1-yl)phenyl)pyridin-3-yl)-3,4-dihydroisoquinolin-1(2H)-one]
2 | 0.1 to 10 nM | > 1000 nM | CCN1CCCC(c2ccc(-c3cc(-c4ccc5c(c4)CCNC5=O)c(N)nc3F)cc2)C1 (stereo not drawn) [I-52, 6-(2-amino-5-(4-(1-ethylpiperidin-3-yl)phenyl)-6-fluoropyridin-3-yl)-3,4-dihydroisoquinolin-1(2H)-one]
3 | 0.1 to 10 nM | > 1000 nM | CCN1CCC(c2ccc(-c3cc(-c4ccc5c(c4)CCNC5=O)c(N)nc3F)cc2)CC1 [I-53, 6-(2-amino-5-(4-(1-ethylpiperidin-4-yl)phenyl)-6-fluoropyridin-3-yl)-3,4-dihydroisoquinolin-1(2H)-one]
4 | 0.1 to 10 nM | > 1000 nM | CS(=O)(=O)N1CCC(Oc2ccc(-c3cc(-c4ccc5c(c4)CCNC5=O)c(N)nc3F)cc2)CC1 [I-54, 6-(2-amino-6-fluoro-5-(4-((1-(methylsulfonyl)piperidin-4-yl)oxy)phenyl)pyridin-3-yl)-3,4-dihydroisoquinolin-1(2H)-one]
5 | 0.1 to 10 nM | > 1000 nM | CN1CCOc2cc(-c3cc(-c4ccc5c(c4)CCNC5=O)c(N)nc3F)ccc21 [I-58, 6-(2-amino-6-fluoro-5-(4-methyl-3,4-dihydro-2H-benzo[b][1,4]oxazin-7-yl)pyridin-3-yl)-3,4-dihydroisoquinolin-1(2H)-one]
6 | 11 to 100 nM | > 1000 nM | Nc1nc(F)c(-c2ccc(N3CCCC3)cc2)cc1-c1ccc2c(c1)CCNC2=O [I-59, 6-(2-amino-6-fluoro-5-(4-(pyrrolidin-1-yl)phenyl)pyridin-3-yl)-3,4-dihydroisoquinolin-1(2H)-one]
7 | 0.1 to 10 nM | > 1000 nM | CS(=O)(=O)c1ccc(-c2cc(-c3ccc4c(c3)CCNC4=O)c(N)nc2F)cc1 [I-62, 6-(2-amino-6-fluoro-5-(4-(methylsulfonyl)phenyl)pyridin-3-yl)-3,4-dihydroisoquinolin-1(2H)-one]
8 | 0.1 to 10 nM | > 1000 nM | Nc1nc(F)c(-c2ccc(S(=O)(=O)C3CC3)cc2)cc1-c1ccc2c(c1)CCNC2=O [I-63, 6-(2-amino-5-(4-(cyclopropylsulfonyl)phenyl)-6-fluoropyridin-3-yl)-3,4-dihydroisoquinolin-1(2H)-one]
9 | 0.1 to 10 nM | > 1000 nM | CN(C)S(=O)(=O)c1ccc(-c2cc(-c3ccc4c(c3)CCNC4=O)c(N)nc2F)cc1 [I-64, 4-(6-amino-2-fluoro-5-(1-oxo-1,2,3,4-tetrahydroisoquinolin-6-yl)pyridin-3-yl)-N,N-dimethylbenzenesulfonamide]
10 | 11 to 100 nM | > 1000 nM | CCN(CC)S(=O)(=O)c1ccc(-c2cc(-c3ccc4c(c3)CCNC4=O)c(N)nc2F)cc1 [I-65, 4-(6-amino-2-fluoro-5-(1-oxo-1,2,3,4-tetrahydroisoquinolin-6-yl)pyridin-3-yl)-N,N-diethylbenzenesulfonamide]
11 | 0.1 to 10 nM | > 1000 nM | Nc1nc(F)c(-c2ccc([C@@]34C[C@@H]3CN(C3CCOCC3)C4)cc2)cc1-c1ccc2c(c1)CCNC2=O [I-66, 6-(2-amino-6-fluoro-5-(4-((1R,5S)-3-(tetrahydro-2H-pyran-4-yl)-3-azabicyclo[3.1.0]hexan-1-yl)phenyl)pyridin-3-yl)-3,4-dihydroisoquinolin-1(2H)-one]
12 | 0.1 to 10 nM | > 1000 nM | CCN1C[C@H]2C[C@@]2(c2ccc(-c3cc(-c4ccc5c(c4)CCNC5=O)c(N)nc3F)cc2)C1 [I-71, 6-(2-amino-5-(4-((1R,5S)-3-ethyl-3-azabicyclo[3.1.0]hexan-1-yl)phenyl)-6-fluoropyridin-3-yl)-3,4-dihydroisoquinolin-1(2H)-one]

The next lines start with the molecule.

Row | Compound | IC50 [1] | IC50 [2]
13 | CC(C)[C@@H]1CN(c2ccc(-c3cc(-c4ccc5c(c4)CCNC5=O)c(N)nc3F)c(F)c2)CCN1C [I-49, (R)-6-(2-amino-6-fluoro-5-(2-fluoro-4-(3-isopropyl-4-methylpiperazin-1-yl)phenyl)pyridin-3-yl)-3,4-dihydroisoquinolin-1(2H)-one] | 0.1 to 10 nM | > 1000 nM
14 | CC(C)[C@H]1CN(c2ccc(-c3cc(-c4ccc5c(c4)CCNC5=O)c(N)nc3F)c(F)c2)CCN1C [I-51, (S)-6-(2-amino-6-fluoro-5-(2-fluoro-4-(3-isopropyl-4-methylpiperazin-1-yl)phenyl)pyridin-3-yl)-3,4-dihydroisoquinolin-1(2H)-one] | 0.1 to 10 nM | > 1000 nM
15 | Nc1nc(F)c(-c2cnn(C3CCOCC3)c2)cc1-c1ccc2c(c1)CCNC2=O [I-55, 6-(2-amino-6-fluoro-5-(1-(tetrahydro-2H-pyran-4-yl)-1H-pyrazol-4-yl)pyridin-3-yl)-3,4-dihydroisoquinolin-1(2H)-one] | 0.1 to 10 nM | > 1000 nM
16 | CC(C)(C)OC(=O)N1CC=C(c2ccc(-c3cc(-c4ccc5c(c4)CCNC5=O)c(N)nc3F)cc2)CC1 [I-56, tert-butyl4-(4-(6-amino-2-fluoro-5-(1-oxo-1,2,3,4-tetrahydroisoquinolin-6-yl)pyridin-3-yl)phenyl)-3,6-dihydropyridine-1(2H)-carboxylate] | 11 to 100 nM | > 1000 nM
17 | Nc1nc(F)c(-c2ccc(C3=CCNCC3)cc2)cc1-c1ccc2c(c1)CCNC2=O [I-57, 6-(2-amino-6-fluoro-5-(4-(1,2,3,6-tetrahydropyridin-4-yl)phenyl)pyridin-3-yl)-3,4-dihydroisoquinolin-1(2H)-one 2,2,2-trifluoroacetate] | 0.1 to 10 nM | > 1000 nM
18 | CN1CCN(c2ccc(-c3cc(-c4ccc5c(c4)CCNC5=O)c(N)nc3F)c(Cl)c2)CC1 [I-61, 6-(2-amino-5-(2-chloro-4-(4-methylpiperazin-1-yl)phenyl)-6-fluoropyridin-3-yl)-3,4-dihydroisoquinolin-1(2H)-one] | 0.1 to 10 nM | > 1000 nM
19 | CCN1CCN(c2ccc(-c3cc(-c4ccc5c(c4)CCCNC5=O)c(N)nc3F)cc2)CC1 [I-67, 7-(2-amino-5-(4-(4-ethylpiperazin-1-yl)phenyl)-6-fluoropyridin-3-yl)-2,3,4,5-tetrahydro-1H-benzo[c]azepin-1-one] | 11 to 100 nM | > 1000 nM
20 | CN1CCN(c2ccc(-c3cc(-c4ccc5c(c4)CCNC5=O)c(N)nc3F)cc2C(F)(F)F)CC1 [I-68, 6-(2-amino-6-fluoro-5-(4-(4-methylpiperazin-1-yl)-3-(trifluoromethyl)phenyl)pyridin-3-yl)-3,4-dihydroisoquinolin-1(2H)-one] | 0.1 to 10 nM | > 1000 nM
21 | CCN1CCN(c2ccc(-c3cc(-c4ccc5c(c4)C(C)(C)CNC5=O)c(N)nc3F)cc2)CC1 [I-69, 6-(2-amino-5-(4-(4-ethylpiperazin-1-yl)phenyl)-6-fluoropyridin-3-yl)-4,4-dimethyl-3,4-dihydroisoquinolin-1(2H)-one] | 0.1 to 10 nM | 101 to 1000 nM
22 | CCN1CCN(c2ccc(-c3cc(-c4ccc5c(c4)CC(C)(C)NC5=O)c(N)nc3F)cc2)CC1 [I-70, 6-(2-amino-5-(4-(4-ethylpiperazin-1-yl)phenyl)-6-fluoropyridin-3-yl)-3,3-dimethyl-3,4-dihydroisoquinolin-1(2H)-one 2,2,2-trifluoroacetate] | 11 to 100 nM | > 1000 nM
23 | Nc1nc(F)c(-c2ccc([C@@]34C[C@@H]3CN(CC(F)F)C4)cc2)cc1-c1ccc2c(c1)CCNC2=O [I-72, 6-(2-amino-5-(4-((1R,5S)-3-(2,2-difluoroethyl)-3-azabicyclo[3.1.0]hexan-1-yl)phenyl)-6-fluoropyridin-3-yl)-3,4-dihydroisoquinolin-1(2H)-one] | 11 to 100 nM | > 1000 nM
24 | Nc1nc(F)c(-c2ccc(C3=CCN(CC(F)F)CC3)cc2)cc1-c1ccc2c(c1)CCNC2=O [I-73, 6-(2-amino-5-(4-(1-(2,2-difluoroethyl)-1,2,3,6-tetrahydropyridin-4-yl)phenyl)-6-fluoropyridin-3-yl)-3,4-dihydroisoquinolin-1(2H)-one] | 0.1 to 10 nM | > 1000 nM
25 | CN1CCN(c2ccc(-c3cc(-c4ccc5c(c4)CCNC5=O)c(N)nc3Cl)cc2)CC1 [I-74, 6-(2-amino-6-chloro-5-(4-(4-methylpiperazin-1-yl)phenyl)pyridin-3-yl)-3,4-dihydroisoquinolin-1(2H)-one] | 11 to 100 nM | > 1000 nM
26 | CCN1CCN(c2ccc(-c3cc(-c4ccc5c(c4)CCNC5=O)c(N)nc3Cl)cc2)CC1 [I-75, 6-(2-amino-6-chloro-5-(4-(4-ethylpiperazin-1-yl)phenyl)pyridin-3-yl)-3,4-dihydroisoquinolin-1(2H)-one] | 11 to 100 nM | > 1000 nM
27 | CCN1CC=C(c2ccc(-c3cc(-c4ccc5c(c4)CCNC5=O)c(N)nc3F)cc2)CC1 [I-76, 6-(2-amino-5-(4-(1-ethyl-1,2,3,6-tetrahydropyridin-4-yl)phenyl)-6-fluoropyridin-3-yl)-3,4-dihydroisoquinolin-1(2H)-one] | 0.1 to 10 nM | > 1000 nM

From US20240343704A1, “HALO-SUBSTITUTED AMINO PYRIDINE COMPOUNDS AS INHIBITORS OF THE HAEMATOPOIETIC PROGENITOR KINASE 1 (HPK1)” (priority 2021, published 2024)
